In patent US8138177B2 (dated 2012):
Structures can show the parent of a compound that is named as a salt.

Compound	melting point [°C]
Cc1cccc2c1n(CCS(C)(=O)=O)c(=O)n2C(=O)N[C@H](C(=O)N(C)C)C(C)(C)C	190.7
CC[C@H](C)[C@H](NC(=O)n1c(=O)n(CCN2CCCCC2)c2ccccc21)C(N)=O (as salt: hydrochloride)	217.1
